ChEMBL document CHEMBL3885861, “Open TG-GATES”

Species on record: Rattus norvegicus
Assay: Open TG-GATES - Regimen: Daily Repeat
Format: toxicity, organism-based, Sprague-Dawley
Set-up: regimen Daily Repeat, gender Male, age 6 weeks
Conditions: in vivo, po, route gavage; for APTT / Bas / Eos / Fbg / Hb / Ht / Lym / MCH / MCHC / MCV / Mono / Neu / PT / Plat / RBC / Ret / WBC: tissue Blood; for KIDNEY_L / KIDNEY_R / KIDNEY_TOTAL: tissue Kidney; for LIVER: tissue Liver; for A/G / ALP / ALT / AST / BUN / CRE / Ca / Cl / DBIL / GLC / IP / K / LDH / Na / PL / RALB / TBIL / TC / TG / TP / gamma-GTP: tissue Plasma
[1] = 120 mg/kg, 72 h, dose level Middle, time 3 day
[2] = 120 mg/kg, […], dose level Middle, time 7 day
[3] = 120 mg/kg, […], dose level Middle, time 14 day
[4] = 120 mg/kg, […], dose level Middle, time 28 day
[5] = 400 mg/kg, 72 h, dose level High, time 3 day
[6] = 400 mg/kg, […], dose level High, time 7 day
[7] = 400 mg/kg, […], dose level High, time 14 day
[8] = 400 mg/kg, […], dose level High, time 28 day

## COc1ccc(Cc2nccc3cc(OC)c(OC)cc23)cc1OC [PAPAVERINE]
[1]
  TERMINAL_BW: 245.2 g
  APTT: 22.2 s
  Bas: 0%
  Eos: 1%
  Fbg: 316.2 mg/dL
  Hb: 13.6 g/dL
  Ht: 40.6%
  Lym: 77.8%
  MCH: 20.8 pg
  MCHC: 33.5%
  MCV: 62.1 fL
  Mono: 2.6%
  Neu: 17.8%
  PT: 15.3 s
  Plat: 116.6 x10_4/uL
  RBC: 654.2 x10_4/ul
  Ret: 6.2%
  WBC: 84.6 x10_2/uL
  KIDNEY_L: 1 g
  KIDNEY_R: 1 g
  KIDNEY_TOTAL: 2 g
  LIVER: 11.7 g
  A/G: 1.2
  ALP: 1731.2 IU/L
  ALT: 43 IU/L
  AST: 72 IU/L
  BUN: 15.8 mg/dL
  CRE: 0.2 mg/dL
  Ca: 10.9 mg/dL
  Cl: 106.8 meq/L
  DBIL: 0 mg/dL
  GLC: 195.8 mg/dL
  IP: 7.3 mg/dL
  K: 4.3 meq/L
  LDH: 179.2 IU/L
  Na: 142.6 meq/L
  PL: 144 mg/dL
  RALB: 3.1 g/dL
  TBIL: 0.006 mg/dL
  TC: 77.2 mg/dL
  TG: 98.6 mg/dL
  TP: 5.7 g/dL
  gamma-GTP: 1.2 IU/L
[2]
  TERMINAL_BW: 287 g
  APTT: 21.9 s
  Bas: 0%
  Eos: 1%
  Fbg: 314.8 mg/dL
  Hb: 13.4 g/dL
  Ht: 39.9%
  Lym: 76.8%
  MCH: 21 pg
  MCHC: 33.6%
  MCV: 62.6 fL
  Mono: 2.8%
  Neu: 18.6%
  PT: 15 s
  Plat: 122.9 x10_4/uL
  RBC: 638.8 x10_4/ul
  Ret: 6.6%
  WBC: 106.6 x10_2/uL
  KIDNEY_L: 1.2 g
  KIDNEY_R: 1.2 g
  KIDNEY_TOTAL: 2.4 g
  LIVER: 13.8 g
  A/G: 1.2
  ALP: 1633.8 IU/L
  ALT: 45.4 IU/L
  AST: 68.8 IU/L
  BUN: 17.2 mg/dL
  CRE: 0.2 mg/dL
  Ca: 10.8 mg/dL
  Cl: 106 meq/L
  DBIL: 0 mg/dL
  GLC: 197.4 mg/dL
  IP: 7.2 mg/dL
  K: 4 meq/L
  LDH: 173.4 IU/L
  Na: 141.4 meq/L
  PL: 149 mg/dL
  RALB: 3.1 g/dL
  TBIL: 0 mg/dL
  TC: 73.4 mg/dL
  TG: 123.2 mg/dL
  TP: 5.6 g/dL
  gamma-GTP: 2.2 IU/L
[3]
  TERMINAL_BW: 331.7 g
  APTT: 22.2 s
  Bas: 0%
  Eos: 1%
  Fbg: 341.6 mg/dL
  Hb: 14.1 g/dL
  Ht: 42.1%
  Lym: 71.2%
  MCH: 20 pg
  MCHC: 33.6%
  MCV: 59.7 fL
  Mono: 3.4%
  Neu: 22.8%
  PT: 15.1 s
  Plat: 117.8 x10_4/uL
  RBC: 706.4 x10_4/ul
  Ret: 5.2%
  WBC: 121.3 x10_2/uL
  KIDNEY_L: 1.3 g
  KIDNEY_R: 1.3 g
  KIDNEY_TOTAL: 2.6 g
  LIVER: 14.4 g
  A/G: 1.1
  ALP: 1378.8 IU/L
  ALT: 48 IU/L
  AST: 75.4 IU/L
  BUN: 18.6 mg/dL
  CRE: 0.2 mg/dL
  Ca: 10.5 mg/dL
  Cl: 106.6 meq/L
  DBIL: 0 mg/dL
  GLC: 191 mg/dL
  IP: 7.2 mg/dL
  K: 4 meq/L
  LDH: 166 IU/L
  Na: 142.6 meq/L
  PL: 156 mg/dL
  RALB: 3.1 g/dL
  TBIL: 0.014 mg/dL
  TC: 81.8 mg/dL
  TG: 109.8 mg/dL
  TP: 5.8 g/dL
  gamma-GTP: 2.4 IU/L
[4]
  TERMINAL_BW: 380.1 g
  APTT: 23.2 s
  Bas: 0%
  Eos: 1%
  Fbg: 339.2 mg/dL
  Hb: 14.3 g/dL
  Ht: 43.4%
  Lym: 77.6%
  MCH: 18.5 pg
  MCHC: 33%
  MCV: 56.1 fL
  Mono: 2.8%
  Neu: 17%
  PT: 15.8 s
  Plat: 100.4 x10_4/uL
  RBC: 773 x10_4/ul
  Ret: 2.7%
  WBC: 122.5 x10_2/uL
  KIDNEY_L: 1.4 g
  KIDNEY_R: 1.4 g
  KIDNEY_TOTAL: 2.8 g
  LIVER: 15.7 g
  A/G: 1.1
  ALP: 1042.8 IU/L
  ALT: 40.4 IU/L
  AST: 66.4 IU/L
  BUN: 18.2 mg/dL
  CRE: 0.2 mg/dL
  Ca: 10.1 mg/dL
  Cl: 106.2 meq/L
  DBIL: 0 mg/dL
  GLC: 191.4 mg/dL
  IP: 6 mg/dL
  K: 3.9 meq/L
  LDH: 120 IU/L
  Na: 141.8 meq/L
  PL: 129.8 mg/dL
  RALB: 3.1 g/dL
  TBIL: 0.01 mg/dL
  TC: 65.2 mg/dL
  TG: 119.8 mg/dL
  TP: 5.9 g/dL
  gamma-GTP: 2 IU/L
[5]
  TERMINAL_BW: 239.4 g
  APTT: 23.7 s
  Bas: 0%
  Eos: 1%
  Fbg: 314.4 mg/dL
  Hb: 13.5 g/dL
  Ht: 39.4%
  Lym: 73%
  MCH: 20.9 pg
  MCHC: 34.2%
  MCV: 61.1 fL
  Mono: 2%
  Neu: 23%
  PT: 15 s
  Plat: 111.3 x10_4/uL
  RBC: 644.8 x10_4/ul
  Ret: 5%
  WBC: 85.7 x10_2/uL
  KIDNEY_L: 1 g
  KIDNEY_R: 1.1 g
  KIDNEY_TOTAL: 2.1 g
  LIVER: 11.8 g
  A/G: 1.3
  ALP: 1542 IU/L
  ALT: 48.4 IU/L
  AST: 75.8 IU/L
  BUN: 16.6 mg/dL
  CRE: 0.1 mg/dL
  Ca: 10.9 mg/dL
  Cl: 107.4 meq/L
  DBIL: 0 mg/dL
  GLC: 179.8 mg/dL
  IP: 7.3 mg/dL
  K: 4.3 meq/L
  LDH: 160.2 IU/L
  Na: 143 meq/L
  PL: 148.4 mg/dL
  RALB: 3.1 g/dL
  TBIL: 0.008 mg/dL
  TC: 83 mg/dL
  TG: 78.4 mg/dL
  TP: 5.6 g/dL
  gamma-GTP: 1.4 IU/L
[6]
  TERMINAL_BW: 267.4 g
  APTT: 24.2 s
  Bas: 0%
  Eos: 0.4%
  Fbg: 337.4 mg/dL
  Hb: 13.6 g/dL
  Ht: 40.4%
  Lym: 74.4%
  MCH: 20.9 pg
  MCHC: 33.7%
  MCV: 61.9 fL
  Mono: 3%
  Neu: 20.8%
  PT: 15.2 s
  Plat: 126.4 x10_4/uL
  RBC: 652 x10_4/ul
  Ret: 5.8%
  WBC: 107.2 x10_2/uL
  KIDNEY_L: 1.2 g
  KIDNEY_R: 1.2 g
  KIDNEY_TOTAL: 2.3 g
  LIVER: 13.4 g
  A/G: 1.2
  ALP: 1249.6 IU/L
  ALT: 42.6 IU/L
  AST: 68 IU/L
  BUN: 18 mg/dL
  CRE: 0.2 mg/dL
  Ca: 10.9 mg/dL
  Cl: 107 meq/L
  DBIL: 0 mg/dL
  GLC: 191.8 mg/dL
  IP: 7.2 mg/dL
  K: 4.2 meq/L
  LDH: 164 IU/L
  Na: 142 meq/L
  PL: 149.4 mg/dL
  RALB: 3.1 g/dL
  TBIL: 0 mg/dL
  TC: 79.4 mg/dL
  TG: 91 mg/dL
  TP: 5.8 g/dL
  gamma-GTP: 2 IU/L
[7]
  TERMINAL_BW: 315.9 g
  APTT: 24.2 s
  Bas: 0%
  Eos: 1%
  Fbg: 321.6 mg/dL
  Hb: 14.1 g/dL
  Ht: 42.3%
  Lym: 75.4%
  MCH: 19.3 pg
  MCHC: 33.3%
  MCV: 58.2 fL
  Mono: 2.8%
  Neu: 19.2%
  PT: 15.4 s
  Plat: 128.5 x10_4/uL
  RBC: 728.6 x10_4/ul
  Ret: 4.3%
  WBC: 108.5 x10_2/uL
  KIDNEY_L: 1.4 g
  KIDNEY_R: 1.4 g
  KIDNEY_TOTAL: 2.7 g
  LIVER: 14.4 g
  A/G: 1.1
  ALP: 1494.6 IU/L
  ALT: 46.4 IU/L
  AST: 71 IU/L
  BUN: 17 mg/dL
  CRE: 0.2 mg/dL
  Ca: 10.5 mg/dL
  Cl: 106.8 meq/L
  DBIL: 0 mg/dL
  GLC: 183 mg/dL
  IP: 7.5 mg/dL
  K: 4.1 meq/L
  LDH: 142.6 IU/L
  Na: 142.8 meq/L
  PL: 143.8 mg/dL
  RALB: 3.1 g/dL
  TBIL: 0.02 mg/dL
  TC: 73.6 mg/dL
  TG: 81.8 mg/dL
  TP: 5.8 g/dL
  gamma-GTP: 2.4 IU/L
[8]
  TERMINAL_BW: 373.4 g
  APTT: 25.6 s
  Bas: 0%
  Eos: 1%
  Fbg: 328 mg/dL
  Hb: 14.4 g/dL
  Ht: 43.7%
  Lym: 71.8%
  MCH: 18.6 pg
  MCHC: 33%
  MCV: 56.6 fL
  Mono: 2.2%
  Neu: 23.8%
  PT: 15.9 s
  Plat: 109.9 x10_4/uL
  RBC: 772.5 x10_4/ul
  Ret: 2.6%
  WBC: 94.3 x10_2/uL
  KIDNEY_L: 1.5 g
  KIDNEY_R: 1.5 g
  KIDNEY_TOTAL: 2.9 g
  LIVER: 16.5 g
  A/G: 1.1
  ALP: 1162 IU/L
  ALT: 47 IU/L
  AST: 69.5 IU/L
  BUN: 19.8 mg/dL
  CRE: 0.2 mg/dL
  Ca: 10.3 mg/dL
  Cl: 106.2 meq/L
  DBIL: 0 mg/dL
  GLC: 182 mg/dL
  IP: 6.6 mg/dL
  K: 4 meq/L
  LDH: 141 IU/L
  Na: 142.5 meq/L
  PL: 146.2 mg/dL
  RALB: 3.2 g/dL
  TBIL: 0.0075 mg/dL
  TC: 82.2 mg/dL
  TG: 86 mg/dL
  TP: 6.1 g/dL
  gamma-GTP: 2.2 IU/L
